From patent US6992215B2, “Thiol-based NAALADase inhibitors” (Guildford Pharmaceuticals Inc., priority 2001, dated 2006)

Key:
[1] = test system: rats subjected to middle cerebral artery occlusion; assay: Neuroprotective effect in MCAO rats with TGF-β neutralizing antibodies; type: in vivo; details: FIG. 5
Description: The effect of TGF-β neutralizing antibodies on the neuroprotective effect of Compound C was also studied in rats following MCAO.
One of ordinary skill in the art can appreciate that the regulation of TGF-β's by NAALADase inhibitors may have implications not only in stroke, but also in other diseases, disorders and conditions including, without limitation, neurological diseases, psychiatric diseases, demyelinating diseases, prostate cancer, inflammation, diabetes and angiogenesis.

[2] = test system: TGF-β1; assay: TGF-β1 levels in MCAO rats assessed by microdialysis; type: in vivo; details: during both occlusion and reperfusion, FIG. 6
[3] = test system: ischemic cell cultures; assay: Neuroprotective effect in in vitro ischemia model with growth factor neutralizing antibodies; type: cell-based
Procedure: TGF-β neutralizing antibodies were then added to the ischemic cell cultures.

[4] = test system: TGF-β1; assay: Effect of NAALADase inhibition on TGF-β1 in in vitro ischemia model; type: cell-based; details: ischemic cell cultures, FIG. 1
Procedure: (§1) A NAALADase inhibitor, Compound C, was added to ischemia cell cultures to determine its effect on TGF-β levels during stroke.

[5] = test system: TGF-β2; assay: Effect of NAALADase inhibition on TGF-β2 in in vitro ischemia model; type: cell-based; details: ischemic cell cultures, FIG. 2
Procedure: as §1

[6] = test system: chronic constrictive injury-induced rats; assay: Neuropathic pain in CCI model (sciatic nerve ligation, thermal hyperalgesia); type: in vivo; details: 50 mg/kg i.p. daily starting 10 days post surgery
Procedure: Sciatic nerve ligation, consisting of 4 ligatures tied loosely around the sciatic nerve at 1 mm intervals proximal to the nerve trifurcation, was performed on rats. […] The rats were habituated to a Hargreaves apparatus. An infrared heat source was directed onto the dorsal surface of each rat's hindpaws and the time taken for the rat to withdraw its paws was noted. The difference in scores between the latency of the response for the paw on the operated side versus the paw on the unoperated control side was determined.
The rats were treated with either Compound 49 (10, 1 or 0.1 mg/kg) or a vehicle for 15 days after sciatic nerve ligation. Thermal pain responses were measured at days 0, 1, 5, 8, 11 and 15. The differences in scores for the rats treated with a vehicle and the rats treated with Compound 49 are graphically presented in FIGS. 13-15.
The rats were treated with either Compound 5 (50, 30, 10, 3, 1 or 0.3 mg/kg) or a vehicle for 12 (or 15) days after sciatic nerve ligation. Thermal pain responses were measured at days 0, 1, 5, 8 and 12 (and 15). The differences in scores for the rats treated with a vehicle and the rats treated with Compound 5 are graphically presented in FIGS. 17-22.
The rats received either Compound C (50 mg/kg i.p. daily) or a vehicle starting 10 days post surgery. […] Normal (unoperated) rats had approximately equal latencies for both paws. This effect was significant starting at 11 days of drug treatment and persisted through to the end of the study (for 21 days of daily dosing).

## O=C(O)CCC(CP(=O)(O)O)C(=O)O (centres unmarked) [Compound C, 2-(phosphonomethyl)pentanedioic acid]
[1]
  neuroprotective effect in vivo in the presence of TGF-β neutralizing antibodies: significantly attenuated
[2]
  TGF-β1 levels: significant rise
[3]; FIG. 3
  neuroprotective effect in the presence of TGF-β neutralizing antibodies: blocked
[3]; FIG. 4
  neuroprotective effect in the presence of FGF antibody: did not block
[4]
  TGF-β1 concentrations: increased concentrations
[5]
  TGF-β2 concentrations: increased concentrations
[6]
  time of drug treatment from which the effect was significant: 11 days
[6]; FIG. 8
  difference scores between the two paws: dramatically normalized
